According to PubChem BioAssay AID1996:
Converted amounts (≈) assume the structure as drawn.

conditions: buffer; pH 7.4; 200.0 µM

| solubility kinetic | SMILES |
| --- | --- |
| > 47.8 µg/mL | COc1ccc2nc(-c3ccccc3)cc(C(=O)N3CCC3)c2c1 |
| 60.9 µg/mL | CCCCOc1c(Br)cc(CNCCCN2CCOCC2)cc1OC.Cl |
| 37.8 µg/mL (≈ 78.8 µM) | Cc1onc(-c2c(F)cccc2Cl)c1C(=O)Nc1cccc(S(=O)(=O)N2CCOCC2)c1 |
| 31.2 µg/mL (≈ 126 µM) | O=[N+]([O-])c1ccc(C2=CSC3=NCCN23)cc1 |
| > 48 µg/mL | CCN(CC(=O)Nc1c(F)cccc1F)C(=O)c1cnccn1 |
| 12 µg/mL (≈ 32.1 µM) | Nc1nc(NCCN2CCOCC2)nc(NCc2ccccc2)c1[N+](=O)[O-] |
| 42 µg/mL (≈ 110 µM) | Cc1ccc(C)c(C(=O)COC(=O)C(C)N2C(=O)C3C4CCC(C4)C3C2=O)c1 (centres undefined) |
| > 47 µg/mL | COC(=O)CC(c1ccccc1F)N1Cc2ccccc2C1=O (centres undefined) |
| 9.8 µg/mL (≈ 33.9 µM) | O=C(CSC(=O)c1ccccc1)Nc1ccccc1F |
| > 72.5 µg/mL | Cc1ccc(S(=O)(=O)N(C)CC(=O)OCC(=O)NCCc2ccc(S(N)(=O)=O)cc2)cc1 |
| 13.7 µg/mL (≈ 52.6 µM) | CCOc1ncccc1C(=O)Nc1ccc(F)cc1 |
| 20 µg/mL (≈ 66.8 µM) | COC(=O)c1ccc(N2C(=O)C3CC=CC(C)C3C2=O)cc1 (centres undefined) |
| > 49.4 µg/mL | O=C(CN1C(=O)NC2(CCCCCC2)C1=O)NCc1ccccc1 |
| 5.5 µg/mL (≈ 16.2 µM) | O=C(CN1C(=O)S/C(=C/c2ccncc2)C1=O)Nc1ccccc1 |
| > 44.3 µg/mL | CCOCC(=O)OCC(=O)NC12CC3CC(CC(C3)C1)C2 |
| 43.7 µg/mL (≈ 138 µM) | O=C(OCC(O)COc1ccccc1)c1ccc([N+](=O)[O-])cc1 (centres undefined) |
| > 46.7 µg/mL | O=C(NCC1CCCO1)c1ccc(COc2ccccc2)cc1 (centres undefined) |
| 1.6 µg/mL (≈ 5.45 µM) | Cc1ccc(C)c(N=Cc2c(O)c3ccccc3oc2=O)c1 |
| < 0.2 µg/mL | Cc1ccc(S(=O)(=O)N2CCN(c3ccc([N+](=O)[O-])cn3)CC2)cc1 |
| 31.4 µg/mL (≈ 143 µM) | COc1ccc(NCc2ccsc2)cc1 |

| solubility kinetic | SMILES |
| --- | --- |
| > 52.7 µg/mL | CC(CNC(=O)c1ccccc1Cl)NC(=O)c1ccccc1Cl (centres undefined) |
| 8.8 µg/mL (≈ 26.6 µM) | C=CCNc1nc(C(=O)OC(C)C(=O)c2ccc(C)cc2)cs1 (centres undefined) |
| 1.4 µg/mL (≈ 4.66 µM) | COc1ccccc1OCCn1c(=S)[nH]c2ccccc21 |
| > 47.6 µg/mL | NC(=O)CSc1ccc(S(=O)(=O)N2CCOCC2)cn1 |
| 41.8 µg/mL (≈ 146 µM) | CC#CC(=O)N1CCC(CO)(CCc2ccccc2)CC1 |
| 32.7 µg/mL (≈ 133 µM) | O=C(COc1ccccc1)Nc1ccccc1F |
| 1 µg/mL (≈ 3.34 µM) | CCCOc1ccc(C(=O)Nc2ccc3c(c2)OCO3)cc1 |
| 18.2 µg/mL (≈ 36.7 µM) | Cc1ccc(C)c(S(=O)(=O)N2CCN(C(=O)[C@H](Cc3ccccc3)NC(=O)c3ccco3)CC2)c1 |
| > 35.4 µg/mL | COc1ccc(C(=O)NC2=NCCS2)cc1 |
| > 44.5 µg/mL | CC(=O)NCCN1C(=O)S/C(=C\c2cccs2)C1=O |
| 1.5 µg/mL (≈ 5.45 µM) | CCOc1ccc(N=Cc2ccc3ccccc3c2)cc1 |
| 27.8 µg/mL (≈ 130 µM) | N#Cc1ccc2c(c1)NC(=O)C1CCCN21 (centres undefined) |
| > 45.5 µg/mL | COc1ccc(-c2noc(CN(C)C3CCOCC3)n2)cc1 |
| 2.1 µg/mL (≈ 6.38 µM) | COc1ccccc1Oc1nc(-c2cccnc2)nc2ccccc12 |
| 8 µg/mL (≈ 29.9 µM) | O=[N+]([O-])c1ccc2c(c1)ncn2CCc1ccccc1 |
| 45.2 µg/mL (≈ 137 µM) | OCCC1CN(Cc2ccc3c(c2)CCO3)CCN1C1CCCC1 (centres undefined) |
| > 61.4 µg/mL | Cc1cccc(S(=O)(=O)Nc2ccc(S(=O)(=O)Nc3nccs3)cc2)c1 |
| 7 µg/mL (≈ 23.5 µM) | S=C(NCCCCc1ccccc1)NCc1ccccc1 |
| > 41.8 µg/mL | CCCC(C)NC(=O)CSc1nnc2ccccn12 (centres undefined) |
| > 53.2 µg/mL | O=c1cc(O)c2sc3nc(C(F)(F)F)c4c(c3c2[nH]1)CCCCC4 |

| solubility kinetic | SMILES |
| --- | --- |
| 37.5 µg/mL (≈ 133 µM) | CC(C)C(=O)Nc1cccc(-c2nc3ncccc3o2)c1 |
| 13.4 µg/mL (≈ 44.3 µM) | CCCNC(=S)N1CCCC(c2nc3ccccc3[nH]2)C1 (centres undefined) |
| 45.1 µg/mL (≈ 121 µM) | Cc1cccc(NC(=O)C2CCCCN2S(=O)(=O)c2ccccc2)c1C (centres undefined) |
| 1.1 µg/mL (≈ 3.31 µM) | Cc1ccc(NS(=O)(=O)c2cccc3cccnc23)c(Cl)c1 |
| 34.5 µg/mL (≈ 110 µM) | COc1ccc(N(CC(=O)N2CCCC2)S(C)(=O)=O)cc1 |
| 8.2 µg/mL (≈ 23.3 µM) | CN(C)S(=O)(=O)c1cccc(NC(=O)CCCC2CCCCC2)c1 |
| 33.2 µg/mL (≈ 109 µM) | CC(C)CC(=O)N1CCN(Cc2cccc([N+](=O)[O-])c2)CC1 |
| 3.1 µg/mL (≈ 9.08 µM) | CCC(OC(=O)C1=Cc2ccccc2OC1)C(=O)NCc1ccco1 (centres undefined) |
| 36 µg/mL (≈ 132 µM) | CC(CCc1ccccc1)NC(=O)Cc1cccs1 (centres undefined) |
| > 53.7 µg/mL | O=C(COc1ccc(Br)cc1)OCC(=O)N1CCOCC1 |
| 35.4 µg/mL (≈ 135 µM) | CCNC(=S)N1CCC(Cc2ccccc2)CC1 |
| 8.2 µg/mL (≈ 23.5 µM) | CNC(=S)N(CCCO)Cc1cc2cc3c(cc2[nH]c1=O)OCO3 |
| 4.9 µg/mL (≈ 11.7 µM) | COc1cc(N)c(Cl)cc1C(=O)OCC(=O)Nc1ccc(N2CCOCC2)cc1 |
| > 33.3 µg/mL | CN(C1=NC(=O)CS1)c1ccc(O)cc1 |
| > 45.5 µg/mL | Cc1cc(NC(=O)C2CC(=O)N(c3ccc(F)cc3)C2)no1 (centres undefined) |
| > 51.5 µg/mL | O=C(O)c1cccc([N+](=O)[O-])c1C(=O)Nc1nc2ccccc2s1 |
| 11.1 µg/mL (≈ 37 µM) | O=C(NCc1ccco1)Nc1ccc(OC(F)(F)F)cc1 |
| 4.6 µg/mL (≈ 13.8 µM) | Cc1ccc(C(=O)Nc2ccccc2C(=O)NCc2ccco2)cc1 |

| SMILES | solubility kinetic |
| --- | --- |
| Cl.O[C@@H]1CCCC[C@H]1N1CCC(c2ccccc2)CC1 | > 44.4 µg/mL |
